Earlier results on 1 compound are cited in patent US5043353A, “A80789 polyether antibiotic” (Eli Lilly and Company, priority 1989, dated 1991).

This series has as its system coccidiosis. Conditions: alone; Science, 122: 244 (1955); cited from earlier work.

SMILES strings stand for the structures.

As for `O=C(Nc1ccc([N+](=O)[O-])cc1)Nc1ccc([N+](=O)[O-])cc1` [4,4'-dinitrocarbanilide], the anticoccidial activity entry is “exhibits anticoccidial activity”.
